Assay [1] deals with primary neuron cultures (OGD-induced cell death). Kind of assay: LOPAC library screen using the oxygen-glucose deprivation (OGD) assay, ATP content as index of cell viability. As to conditions: for activity at 10 µM: Rattus norvegicus, Primary neuron, read-out: Activity (% Cells Alive).
Protocol: Primary neuron cultures were prepared as follows: Brain cortices from E18 rat brains were dissected in DPBS without calcium and magnesium. They were digested at 37° C. for 30 min with trypsin. The digestion was stopped by addition of MEM, 10% Fetal Bovine Serum (FBS)and 10% Horse Serum. DNase (10 U/ml) was also added. The tissues were mechanically triturated using a pipette. This step was repeated until all cells were dissociated and then they were filtered through a 70 um Nitrex mesh. The cells were counted and plated in poly ornithine-coated 96-well culture plates at 5×10^5 cells/well in MEM containing 10% HS and 10% FBS. Three days later, the medium was changed to neurobasal-serum free containing B27 and SATO (Sodium selenite 4 μg/ml, transferrrin 100 μg/ml, BSA 100 μg/ml, progesterone 62 μg/ml, putrescine 160 μg/ml). 5-Fluoro-2′deoxyuridine (FdU 30 μM) was added to inhibit the dividing microglia from the cultures. The culture medium was changed every 3 days leaving half volume of the old (conditioned) media and adding half volume of fresh media. All experiments were performed in 11-12 days-old neuronal cultures. The cells were maintained at 37° C. in a 5% CO2 humidified incubator.
The compounds from the LOPAC library, obtained from Sigma, were plated in 96-wells at 200 μM (20× the final concentration).
The neuronal cultures were pre-incubated with the compounds (10 μM final concentration) for 2 hours. The cells were then subjected to oxygen glucose deprivation (OGD) for 120 min at 37° C. in presence of the compounds of the library. Cultures were placed in an anaerobic chamber (Forma Scientific) and washed two times with balanced salt solution (116 mM NaCl, 5.4 mM KCl, 1 mM NaH2PO4, 1.8 mm CaCl2, 26.2 mM NaHCO3, 0.01 mM glycine, pH=7.4) lacking glucose and aerated with an anaerobic gas mix (85% N2/5% CO2/10% H2) to remove residual oxygen. Control cultures were kept in the original neurobasal media but were submitted to the anaerobic conditions. MK-801 (10 μM), a non competitive NMDA receptor antagonist was used to prevent cell death after OGD caused by activation of the NMDA receptors. To terminate the oxygen glucose deprivation, the cells were removed from the anaerobic chamber and the OGD media was removed and replaced with neurobasal media. The compounds were added back for an additional 20 hours.
Cells were lysed and ATP content was measured as an index for cell viability using a commercially available reagent (Cell Titter Glo from Promega). This assay generates a luminescent signal produced by the luciferase reaction.
In another assay the target is T1, 5-HT3 receptor (Homo sapiens, UniProt P46098).
T1 sequence (P46098 24-478): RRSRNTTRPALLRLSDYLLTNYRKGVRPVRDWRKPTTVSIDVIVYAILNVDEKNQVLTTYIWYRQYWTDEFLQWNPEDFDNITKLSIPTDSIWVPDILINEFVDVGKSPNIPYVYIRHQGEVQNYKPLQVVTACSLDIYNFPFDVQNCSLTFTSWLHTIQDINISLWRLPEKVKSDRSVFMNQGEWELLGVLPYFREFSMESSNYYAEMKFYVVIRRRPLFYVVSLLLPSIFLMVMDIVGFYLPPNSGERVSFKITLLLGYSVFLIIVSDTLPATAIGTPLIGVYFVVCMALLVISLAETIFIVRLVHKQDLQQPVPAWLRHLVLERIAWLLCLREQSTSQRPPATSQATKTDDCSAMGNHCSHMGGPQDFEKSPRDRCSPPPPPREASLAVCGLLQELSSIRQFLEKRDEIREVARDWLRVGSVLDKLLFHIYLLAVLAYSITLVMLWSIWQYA
To be noted: known 5-HT3 agonists; van Hooft et al. 1997, Morain et al. 1994; cited from earlier work.

On to `Cc1[nH]c2ccc(O)cc2c1CCN.O=C(O)/C=C\C(=O)O` [Formula III, 2-methyl-5-hydroxytryptaminemaleate], for which, in assay [1] (10 μM compound, 2 h pre-incubation, OGD 120 min, compound added back 20 h, ATP content (Cell Titter Glo)), the “Activity (% Cells Alive)” value turned out to be 106 ± 25%.
Consider `NC1CCN(c2cccc(Cl)n2)CC1` [Formula V, 1-(6-chloro-2-pyridinyl)-4-piperidinamine], for which the activity at 10 µM in assay [1] worked out at 80 ± 27%.
As a reminder, the EC50 is the concentration at which the effect is half-maximal. Take `N=C(N)NC(=N)Nc1cccc(Cl)c1` [Formula I, 1-(m-chlorophenyl)-biguanide]: the activity at 10 µM in assay [1] stood at 106 ± 6%. In addition, the EC50 on 5-HT3 receptor is 0.4 µM.
`Cc1[nH]c2ccc(O)cc2c1CCN` [2-methyl-5-HT, reference compound]: the EC50 on 5-HT3 receptor is 5 to 8 µM.
As for `N=C(N)NC(=N)Nc1ccccc1` [Formula II, N-phenyl-imidocarbonimidicdiamide], the activity at 10 µM in assay [1] came to 67 ± 25%. Also, at 5-HT3 receptor, the 50% effective concentration (EC50) was 22 µM.
Turning to `CN1CCN(c2ccc3ccccc3n2)CC1` [Formula IV, 2-(1-(4-methyl)-piperazineyl)quinolinedimaleate], the activity at 10 µM in assay [1] was 103 ± 30%.
